{
  "source": "patent US20050281750A1",
  "about": "“Sprayable compositions comprising a combination of pharmaceutical active agents, an alcohol phase, at least one volatile silicone and a non-volatile oily phase” (GALDERMA S.A., priority 2004, published 2005)",
  "format_in_all_cases": "physicochemical",
  "key": {"[1]": {"experiment": "Stability of calcitriol in ethanol (HPLC assay against a reference substance)", "conditions": "for Measured concentration of calcitriol in % relative to T0: 30 ppm in absolute ethanol, 0.02% BHT", "description": "(§1) Calcitriol stability data were generated in various excipients, including ethanol 100, an ethanol 100 (75%)/cyclomethicone 5 (25%) mixture, or oils such as Miglyol 812 and Cetiol SN. • a) Stability of Calcitriol in Ethanol: Solution of 30 ppm of calcitriol in qsp 100% of absolute ethanol, in the presence of 0.02% of BHT. Technique of HPLC assay against a reference substance. At the starting time (T0) the composition is considered to comprise 100% of calcitriol. Measured concentration of calcitriol in % relative to T0: […]"}, "[2]": {"experiment": "Stability of calcitriol in ethanol/cyclopentasiloxane (HPLC assay against a reference substance)", "conditions": "for Measured concentration of calcitriol in % relative to T0: 30 ppm in 75% absolute ethanol + 25% cyclopentasiloxane, 0.02% BHT", "description": "as §1, with “Ethanol: b) Stability of Calcitriol in Ethanol/Cyclopentasiloxane:” for “Ethanol:”, “qsp 75%” for “qsp 100%”, “absolute ethanol+25% of cyclopentasiloxane,” for “absolute ethanol,”"}, "[3]": {"experiment": "Stability of calcitriol in Miglyol 812 (caprylic/capric triglycerides) (HPLC assay)", "conditions": "for Measured concentration of calcitriol in % relative to T0: 30 ppm in Miglyol 812, 0.4% BHT", "description": "(§2) Calcitriol stability data were generated in various excipients, including ethanol 100, an ethanol 100 (75%)/cyclomethicone 5 (25%) mixture, or oils such as Miglyol 812 and Cetiol SN. • a) Stability of Calcitriol in Ethanol: c) Stability of Calcitriol in Miglyol 812 (Caprylic/Capric Triglycerides): Solution of 30 ppm of calcitriol in qsp 100% of Miglyol 812, in the presence of 0.4% of BHT. Technique of HPLC assay against a reference substance. At the starting time (T0) the composition is considered to comprise 100% of calcitriol. Measured concentration of calcitriol in % relative to T0: […]"}, "[4]": {"experiment": "Stability of calcitriol in Cetiol SN (cetearyl isononanoate) (HPLC assay)", "conditions": "for Measured concentration of calcitriol in % relative to T0: 30 ppm in Cetiol SN, 0.4% BHT", "description": "as §2, with “d)” for “c)”, “Cetiol SN (Cetearyl Isononanoate):” for “Miglyol 812 (Caprylic/Capric Triglycerides):”, “Cetiol SN (cetearyl isononanoate),” for “Miglyol 812,”"}},
  "data": [
    {"smiles": "C=C1/C(=C\\C=C2/CCC[C@]3(C)[C@@H]([C@H](C)CCCC(C)(C)O)CC[C@@H]23)C[C@@H](O)C[C@@H]1O", "note": "[calcitriol]", "values": [
      {"measurement": "Measured concentration of calcitriol in % relative to T0", "setting": "[1]; +4° C., T 1 week", "result": 97.7, "unit": "%"},
      {"measurement": "Measured concentration of calcitriol in % relative to T0", "setting": "[1]; +4° C., T 2 weeks", "result": 98.6, "unit": "%"},
      {"measurement": "Measured concentration of calcitriol in % relative to T0", "setting": "[1]; +4° C., T 3 weeks", "result": 98.1, "unit": "%"},
      {"measurement": "Measured concentration of calcitriol in % relative to T0", "setting": "[1]; +4° C., T 4 weeks", "result": 97.7, "unit": "%"},
      {"measurement": "Measured concentration of calcitriol in % relative to T0", "setting": "[1]; +30° C., T 2 weeks", "result": 93.4, "unit": "%"},
      {"measurement": "Measured concentration of calcitriol in % relative to T0", "setting": "[1]; +30° C., T 4 weeks", "result": 93.0, "unit": "%"},
      {"measurement": "Measured concentration of calcitriol in % relative to T0", "setting": "[1]; −18° C., T 1 week", "result": 100.9, "unit": "%"},
      {"measurement": "Measured concentration of calcitriol in % relative to T0", "setting": "[1]; −18° C., T 2 weeks", "result": 100.5, "unit": "%"},
      {"measurement": "Measured concentration of calcitriol in % relative to T0", "setting": "[1]; −18° C., T 3 weeks", "result": 99.5, "unit": "%"},
      {"measurement": "Measured concentration of calcitriol in % relative to T0", "setting": "[1]; −18° C., T 4 weeks", "result": 99.5, "unit": "%"},
      {"measurement": "Stability of calcitriol (in words)", "setting": "[1]; in ethanol", "result": "good stability"},
      {"measurement": "Measured concentration of calcitriol in % relative to T0", "setting": "[2]; +4° C., T 2 weeks", "result": 99.2, "unit": "%"},
      {"measurement": "Measured concentration of calcitriol in % relative to T0", "setting": "[2]; +4° C., T 3 weeks", "result": 99.6, "unit": "%"},
      {"measurement": "Measured concentration of calcitriol in % relative to T0", "setting": "[2]; +4° C., T 4 weeks", "result": 97.5, "unit": "%"},
      {"measurement": "Measured concentration of calcitriol in % relative to T0", "setting": "[2]; +30° C., T 2 weeks", "result": 93.8, "unit": "%"},
      {"measurement": "Measured concentration of calcitriol in % relative to T0", "setting": "[2]; +30° C., T 4 weeks", "result": 93.3, "unit": "%"},
      {"measurement": "Measured concentration of calcitriol in % relative to T0", "setting": "[2]; −18° C., T 2 weeks", "result": 100.4, "unit": "%"},
      {"measurement": "Measured concentration of calcitriol in % relative to T0", "setting": "[2]; −18° C., T 3 weeks", "result": 101.3, "unit": "%"},
      {"measurement": "Measured concentration of calcitriol in % relative to T0", "setting": "[2]; −18° C., T 4 weeks", "result": 99.2, "unit": "%"},
      {"measurement": "Stability of calcitriol (in words)", "setting": "[2]; in an ethanol/cyclopentasiloxane mixture", "result": "good stability"},
      {"measurement": "Measured concentration of calcitriol in % relative to T0", "setting": "[3]; +4° C., T 2 weeks", "result": 98.3, "unit": "%"},
      {"measurement": "Measured concentration of calcitriol in % relative to T0", "setting": "[3]; +4° C., T 4 weeks", "result": 105.2, "unit": "%"},
      {"measurement": "Measured concentration of calcitriol in % relative to T0", "setting": "[3]; +40° C., T 2 weeks", "result": 91, "unit": "%"},
      {"measurement": "Measured concentration of calcitriol in % relative to T0", "setting": "[3]; +40° C., T 4 weeks", "result": 93.8, "unit": "%"},
      {"measurement": "Measured concentration of calcitriol in % relative to T0", "setting": "[3]; RT, T 2 weeks", "result": 95.1, "unit": "%"},
      {"measurement": "Measured concentration of calcitriol in % relative to T0", "setting": "[3]; RT, T 4 weeks", "result": 98.0, "unit": "%"},
      {"measurement": "Stability of calcitriol (in words)", "setting": "[3]; in Miglyol 812", "result": "good stability"},
      {"measurement": "Measured concentration of calcitriol in % relative to T0", "setting": "[4]; +4° C., T 2 weeks", "result": 98.6, "unit": "%"},
      {"measurement": "Measured concentration of calcitriol in % relative to T0", "setting": "[4]; +4° C., T 4 weeks", "result": 98.1, "unit": "%"},
      {"measurement": "Measured concentration of calcitriol in % relative to T0", "setting": "[4]; +40° C., T 2 weeks", "result": 99.0, "unit": "%"},
      {"measurement": "Measured concentration of calcitriol in % relative to T0", "setting": "[4]; +40° C., T 4 weeks", "result": 98.9, "unit": "%"},
      {"measurement": "Measured concentration of calcitriol in % relative to T0", "setting": "[4]; RT, T 2 weeks", "result": 98.7, "unit": "%"},
      {"measurement": "Measured concentration of calcitriol in % relative to T0", "setting": "[4]; RT, T 4 weeks", "result": 98.4, "unit": "%"},
      {"measurement": "Stability of calcitriol (in words)", "setting": "[4]; in Cetiol SN", "result": "good stability"}
    ]}
  ]
}
